Measured values: ChEMBL document CHEMBL1938311, “Potent adjuvantic activity of a CCR1-agonistic bis-quinoline” (Bioorg Med Chem Lett, 2012)
pEC50: −log10 of the molar value. Calls of active or inactive are those of the source. The calls are words filed in the database; no cut-off is given here.

Assays:
HEK293 [1] = assay: Transactivation of NF-kappaB expressed in HEK293 cells co-transfected TLR2/TLR3/TLR4/TLR5/TLR7/TLR8/TLR9/Nod-1 by alkaline phosphatase reporter gene assay; format: cell-based
Mus musculus [2] = assay: Adjuvantic activity in CF-1 mouse assessed as increase in bovine alpha-lactalbumin-elicited IgG2a production at 50 ug, im followed by booster dose administered on day 14 measured after 21 days; format: functional, organism-based
Mus musculus [3] = assay: Adjuvantic activity in CF-1 mouse assessed as increase in bovine alpha-lactalbumin-elicited antibodies production at 50 ug, im followed by booster dose administered on day 14 measured after 21 days by surface-plasmon resonance; format: functional, organism-based
Mus musculus [4] = assay: Adjuvantic activity in CF-1 mouse assessed as increase in bovine alpha-lactalbumin-elicited IgG1 production at 50 ug, im followed by booster dose administered on day 14 measured after 21 days; format: functional, organism-based
Blood [5] = assay: Pro-inflammatory activity in human whole blood assessed as IL1-beta production upto 50 uM; format: functional, tissue-based
[6] = target: T1, C-X-C chemokine receptor type 2 (Homo sapiens) (UniProt P25025); assay: Agonist activity at CXCR2 expressed in CHO cells at 10^-6 to 10^-5 M by cellular dielectric spectroscopy; format: functional, cell-based
T1 sequence (whole entry): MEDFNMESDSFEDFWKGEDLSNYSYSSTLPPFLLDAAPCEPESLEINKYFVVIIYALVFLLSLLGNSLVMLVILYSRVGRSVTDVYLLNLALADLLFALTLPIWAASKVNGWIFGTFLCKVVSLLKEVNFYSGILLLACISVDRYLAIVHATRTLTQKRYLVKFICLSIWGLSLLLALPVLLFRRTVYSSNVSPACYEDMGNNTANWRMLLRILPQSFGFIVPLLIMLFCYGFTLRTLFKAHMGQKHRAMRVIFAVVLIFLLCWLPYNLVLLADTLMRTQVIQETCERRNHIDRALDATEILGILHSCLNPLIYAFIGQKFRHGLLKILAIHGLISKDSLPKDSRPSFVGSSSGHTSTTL

Salmonella typhimurium [7] = assay: Mutagenic activity in Salmonella Typhimurium TA1535-S9 by Ames test; format: toxicity, organism-based; details: salmonella enterica subsp. enterica serovar typhimurium
Blood [8] = assay: Pro-inflammatory activity in human whole blood assessed as IL-18 production upto 50 uM; format: functional, tissue-based
[9] = target: C-C chemokine receptor type 2 (Homo sapiens) (UniProt P41597); assay: Agonist activity at CCR2 expressed in CHO cells at 10^-6 to 10^-5 M by cellular dielectric spectroscopy; format: functional, cell-based
Chain of C-C chemokine receptor type 2 (Homo sapiens) (P41597 whole entry, looked up): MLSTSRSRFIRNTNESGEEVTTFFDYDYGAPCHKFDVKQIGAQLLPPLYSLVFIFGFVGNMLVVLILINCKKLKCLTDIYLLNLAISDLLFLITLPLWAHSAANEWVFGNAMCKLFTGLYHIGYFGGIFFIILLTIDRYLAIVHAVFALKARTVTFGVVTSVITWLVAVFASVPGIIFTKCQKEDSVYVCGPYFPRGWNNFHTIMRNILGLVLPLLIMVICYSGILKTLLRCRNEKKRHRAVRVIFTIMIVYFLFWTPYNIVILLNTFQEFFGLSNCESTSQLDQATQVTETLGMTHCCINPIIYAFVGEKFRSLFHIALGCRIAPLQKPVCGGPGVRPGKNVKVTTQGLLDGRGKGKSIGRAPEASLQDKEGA

Blood [10] = assay: Pro-inflammatory activity in human whole blood assessed as IL-6 production upto 50 uM; format: functional, tissue-based
Blood [11] = assay: Pro-inflammatory activity in human whole blood assessed as TNF-alpha production upto 50 uM; format: functional, tissue-based
[12] = target: C-X-C chemokine receptor type 4 (Homo sapiens) (UniProt P61073); assay: Agonist activity at CXCR4 expressed in CHO cells at 10^-6 to 10^-5 M by cellular dielectric spectroscopy; format: functional, cell-based
Chain of C-X-C chemokine receptor type 4 (Homo sapiens) (P61073 whole entry): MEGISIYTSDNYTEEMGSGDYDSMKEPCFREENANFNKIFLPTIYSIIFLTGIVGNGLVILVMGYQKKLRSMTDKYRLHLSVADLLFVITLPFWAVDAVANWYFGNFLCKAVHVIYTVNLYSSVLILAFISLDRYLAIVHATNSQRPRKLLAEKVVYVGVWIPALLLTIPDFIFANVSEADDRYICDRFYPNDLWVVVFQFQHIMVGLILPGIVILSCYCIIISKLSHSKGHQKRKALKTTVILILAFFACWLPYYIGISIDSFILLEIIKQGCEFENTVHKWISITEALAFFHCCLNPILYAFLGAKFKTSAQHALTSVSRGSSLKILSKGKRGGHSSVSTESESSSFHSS

Blood [13] = assay: Antiinflammatory activity in human whole blood assessed as IL-10 production upto 50 uM; format: functional, tissue-based
[14] = target: T2, C-C chemokine receptor type 1 (Homo sapiens, UniProt P32246); assay: Agonist activity at human CCR1 expressed in CHO cells by cellular dielectric spectroscopy; format: functional, cell-based
T2 sequence (P32246 whole entry): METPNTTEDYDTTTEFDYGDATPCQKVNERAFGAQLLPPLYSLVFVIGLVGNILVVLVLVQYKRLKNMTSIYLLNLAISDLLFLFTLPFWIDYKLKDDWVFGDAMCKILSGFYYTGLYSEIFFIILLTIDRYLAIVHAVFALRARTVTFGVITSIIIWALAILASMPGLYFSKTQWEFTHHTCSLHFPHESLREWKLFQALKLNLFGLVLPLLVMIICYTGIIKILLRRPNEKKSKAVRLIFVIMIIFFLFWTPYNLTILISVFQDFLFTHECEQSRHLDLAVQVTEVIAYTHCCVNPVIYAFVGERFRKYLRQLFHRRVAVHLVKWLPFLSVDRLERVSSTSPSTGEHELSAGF

PBMC [15] = assay: Modulation of inflammation in human PBMC by transcriptional profiling; format: functional, cell-based
Mus musculus [16] = assay: Toxicity in CF-1 mouse assessed as mortality up to 100 mg/kg, ip administered as single dose measured at 48 hrs; format: organism-based; design: dose 100 mg/kg, route intraperitoneal; details: in vivo
Blood [17] = assay: Pro-inflammatory activity in human whole blood assessed as IL-8 production upto 50 uM; format: functional, tissue-based
Blood [18] = assay: Pro-inflammatory activity in human whole blood assessed as IL-12 production upto 50 uM; format: functional, tissue-based
Salmonella typhimurium [19] = assay: Mutagenic activity in Salmonella Typhimurium TA98-S9 by Ames test; format: toxicity, organism-based; details: salmonella enterica subsp. enterica serovar typhimurium
[20] = target: T3, C-C chemokine receptor type 3 (Homo sapiens) (UniProt P51677); assay: Agonist activity at CCR3 expressed in CHO cells at 10^-6 to 10^-5 M by cellular dielectric spectroscopy; format: functional, cell-based
T3 sequence (whole entry): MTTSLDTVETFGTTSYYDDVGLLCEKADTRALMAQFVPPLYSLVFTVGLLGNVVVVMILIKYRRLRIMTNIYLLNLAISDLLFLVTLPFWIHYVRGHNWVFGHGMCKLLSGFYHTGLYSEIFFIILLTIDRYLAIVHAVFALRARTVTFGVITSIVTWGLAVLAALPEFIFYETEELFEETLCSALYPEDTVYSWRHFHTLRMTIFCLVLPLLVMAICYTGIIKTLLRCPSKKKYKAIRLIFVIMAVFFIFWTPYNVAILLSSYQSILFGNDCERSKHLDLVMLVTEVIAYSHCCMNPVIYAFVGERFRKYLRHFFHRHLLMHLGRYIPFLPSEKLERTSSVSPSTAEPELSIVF

HEK293 [21] = assay: Transactivation of NF-kappaB expressed in HEK293 cells by alkaline phosphatase reporter gene assay; format: cell-based
PBMC [22] = assay: Immunostimulatory activity against human PBMC by transcriptional profiling; format: functional, cell-based
Salmonella typhimurium [23] = assay: Mutagenic activity in Salmonella Typhimurium TA100-S9 by Ames test; format: toxicity, organism-based; details: salmonella enterica subsp. enterica serovar typhimurium

In the case of Clc1ccc2c(NCCCCCCCNc3ccnc4cc(Cl)ccc34)ccnc2c1, the Activity (HEK293 [1]) was “inactive”.
In the case of Clc1ccc2c(NCCCNc3ccnc4cc(Cl)ccc34)ccnc2c1, the Activity (HEK293 [1]) was “inactive”.
With Clc1ccc2c(NCCNc3ccnc4cc(Cl)ccc34)ccnc2c1 the Activity (HEK293 [1]) was “inactive”.
For Clc1ccc2c(NCCCCCCCCCCNc3ccnc4cc(Cl)ccc34)ccnc2c1, the Activity (HEK293 [1]) was “inactive”.
For CCN(CC)CCCC(C)Nc1ccnc2cc(Cl)ccc12 (stereo not given), the Activity (HEK293 [1]) was “inactive”.
With Clc1ccc2c(NCCCCCCCCCCCCNc3ccnc4cc(Cl)ccc34)ccnc2c1 the Activity (HEK293 [1]) was “inactive”.
For Clc1ccc2c(NCCCCCNc3ccnc4cc(Cl)ccc34)ccnc2c1, the Activity (HEK293 [1]) was “inactive”.
With CCCCCCCCCCCCCC(=O)OC(CCCCCCCCCCC)CC(=O)N[C@H]1[C@H](OC[C@H]2O[C@H](O)[C@H](NC(=O)CC(O)CCCCCCCCCCC)[C@@H](OC(=O)CC(O)CCCCCCCCCCC)[C@@H]2O)O[C@H](CO)[C@@H](OP(=O)(O)O)[C@@H]1OC(=O)CC(CCCCCCCCCCC)OC(=O)CCCCCCCCCCCCC (stereo not given in full) the Activity (Mus musculus [2]) was “Active”, the Activity (Mus musculus [3]) was “Active” and the Activity (Mus musculus [4]) was “Active”.
With Clc1ccc2c(NCCCCCCCCNc3ccnc4cc(Cl)ccc34)ccnc2c1 the Activity (HEK293 [1]) was “inactive”.
Clc1ccc2c(NCCCCCCNc3ccnc4cc(Cl)ccc34)ccnc2c1 was tested, and the Activity (HEK293 [1]) was “inactive”.
Clc1ccc2c(NCCCCNc3ccnc4cc(Cl)ccc34)ccnc2c1 was tested, and the Activity (Blood [5]) was “inactive”, the Activity [6] was “inactive” and the Activity (Salmonella typhimurium [7]) was “Non-toxic”. The Activity (Blood [8]) was “inactive”, the Activity [9] was “inactive” and the Activity (Blood [10]) was “inactive”. For the same molecule, the Activity (HEK293 [1]) was “inactive”, the Activity (Blood [11]) was “inactive” and the Activity [12] was “inactive”. The Activity (Blood [13]) was “inactive”, the pEC50 [14] was 5.70 and the Activity (PBMC [15]) was “inactive”. For the same molecule, the Activity (Mus musculus [16]) was “Non-toxic”, the Activity (Mus musculus [2]) was “Active” and the Activity (Mus musculus [3]) was “Active”. For the same molecule, the Activity (Blood [17]) was “inactive”, the Activity (Blood [18]) was “inactive” and the Activity (Salmonella typhimurium [19]) was “Non-toxic”. The Activity [20] was “inactive”, the Activity (HEK293 [21]) was “Active” and the Activity (Mus musculus [4]) was “Active”. For the same molecule, the Activity (PBMC [22]) was “inactive” and the Activity (Salmonella typhimurium [23]) was “Non-toxic”.
In the case of CCCc1nc2c(N)nc3ccccc3c2s1, the Activity (Blood [5]) was “Active”, the Activity (Blood [8]) was “Active” and the Activity (Blood [10]) was “Active”. The Activity (Blood [11]) was “Active”, the Activity (Blood [13]) was “Active” and the Activity (Blood [17]) was “Active”. For the same molecule, the Activity (Blood [18]) was “Active”.
In the case of CCCCCCCCCCCCCCCC(=O)OCC(CSC[C@H](N)C(=O)N[C@@H](CO)C(=O)O)OC(=O)CCCCCCCCCCCCCCC (stereo not given in full), the Activity (Mus musculus [2]) was “Active”, the Activity (Mus musculus [3]) was “Active” and the Activity (Mus musculus [4]) was “Active”.
